The source of these data is publication PMC2375871, “Regulation of 5'-adenosine monophosphate deaminase in the freeze tolerant wood frog, Rana sylvatica” (BMC Biochemistry, 2008).

The structures appear in SMILES notation.

The term EC50 denotes the concentration giving half of the maximal effect. A higher EC50 goes with lower potency in that assay. For orientation: IC50 means the concentration that inhibits the measured activity by half.

Common to all, as to assay type: biochemical, Lithobates sylvaticus
The target of experiment [1] is T1, Bound AMPD (wood frog skeletal muscle, control frogs).
T1 construct: gene AMPD1; low phosphate form; not purified
Briefly: AMP deaminase activity, glutamate dehydrogenase-coupled, NADH […] nm. The note with it: activation constant (half-maximal activation, 1.25-fold), as Mg·ADP, 0.5 mM AMP, pH 7.2, 25°C, bound enzyme, allosteric.

The target of experiment [2] is T2, Bound AMPD (wood frog skeletal muscle, frozen frogs).
T2 construct: gene AMPD1; high phosphate form (sites not known); not purified
Described as above. The note with it: activation constant (half-maximal activation, 3.42-fold), as Mg·ADP, 0.5 mM AMP, pH 7.2, 25°C, bound enzyme, allosteric.

Experiment [3] deals with T3, Free AMPD (wood frog skeletal muscle, control frogs).
T3 construct: gene AMPD1; native, soluble (free) form in skeletal muscle extract of 5°C-acclimated control frogs, Sephadex G-50 desalted, not purified
Briefly: AMP deaminase activity, […] nm absorbance. The note with it: 0.5 mM AMP, pH 7.2, 25°C, allosteric.

For experiment [4], the system named is T2, Bound AMPD (wood frog skeletal muscle, frozen frogs). Description: AMP deaminase activity, glutamate dehydrogenase-coupled, NADH […] nm, Hill fit. The note with it: Hill coefficient 1.12, pH 7.2, 25°C, no glucose, bound enzyme, read-out: S0.5 AMP.
Experiment [5] relates to T1, Bound AMPD (wood frog skeletal muscle, control frogs). The experiment is described as above. As to conditions: Hill coefficient 1.03, pH 7.2, 25°C, no glucose, bound enzyme, read-out: S0.5 AMP.
Experiment [6] deals with T3, Free AMPD (wood frog skeletal muscle, control frogs). Briefly: AMP deaminase activity, […] nm absorbance, Hill fit. The note with it: after Sephadex G-50 desalting, Hill coefficient 2.37, pH 7.2, 25°C, read-out: After spun columns.
Experiment [7] concerns the target T3, Free AMPD (wood frog skeletal muscle, control frogs). Description: AMP deaminase activity, […] nm absorbance. The note with it: as Mg·GTP, 0.5 mM AMP, pH 7.2, 25°C, allosteric.
For experiment [8], the target named is T2, Bound AMPD (wood frog skeletal muscle, frozen frogs). Briefly: AMP deaminase activity, glutamate dehydrogenase-coupled, NADH […] nm. The note with it: as Mg·GTP, 0.5 mM AMP, pH 7.2, 25°C, bound enzyme, allosteric.
Experiment [9] addresses T1, Bound AMPD (wood frog skeletal muscle, control frogs). Described as above. The note with it: as Mg·GTP, 0.5 mM AMP, pH 7.2, 25°C, bound enzyme, allosteric.

Turning to `Nc1ncnc2c1ncn2[C@@H]1O[C@H](COP(=O)(O)OP(=O)(O)O)[C@@H](O)[C@H]1O` [Mg·ADP], the 50% effective concentration (EC50) is 3.75 ± 0.37 mM in [1]; 1.14 ± 0.1 mM in experiment [2]; 1.12 ± 0.15 mM in experiment [3] (activation constant (half-maximal activation, 2.17-fold), as Mg·ADP).

`Nc1ncnc2c1ncn2[C@@H]1O[C@H](COP(=O)(O)O)[C@@H](O)[C@H]1O` [AMP]: the values for the Km in experiment [4], in experiment [5] and in experiment [6] were 1500 ± 190 µM, 460 ± 30 µM and 1350 ± 80 µM, respectively.

With `Nc1nc2c(ncn2[C@@H]2O[C@H](COP(=O)(O)OP(=O)(O)OP(=O)(O)O)[C@@H](O)[C@H]2O)c(=O)[nH]1` [Mg·GTP], the IC50 in experiment [7] stood at 0.15 ± 0.02 mM; in experiment [8], 0.1 ± 0.01 mM; in experiment [9] it was 0.08 ± 0.01 mM.

Compound `Nc1ncnc2c1ncn2[C@@H]1O[C@H](COP(=O)(O)OP(=O)(O)OP(=O)(O)O)[C@@H](O)[C@H]1O` [Mg·ATP] came in with a half-maximal effective concentration (EC50) in experiment [3] (activation constant (half-maximal activation, 1.53-fold), as Mg·ATP) of 1.9 ± 0.03 mM.
